Results on 4 compounds are retold here after paper PMC12464775, “Selective and Potent Peptide Binders of RNF43 for Wnt Signaling Inhibition” (ACS Central Science, 2025).

The structures appear in SMILES notation. Bridge positions count the residues as written; N and C are the ends. Peptide text beside a SMILES is read from it. * marks the point of attachment. Biotin = O=C1N[C@H]2[C@H](CS[C@H]2CCCCC(=O)*)N1

This test concerns ZNRF3. Kind of test: SPR binding to ZNRF3 (specificity). Conditions: for binding to ZNRF3: protein immobilized, untagged DCP injected. On the procedure:
SPR measurement was carried out using a Biacore S200 (Cytiva) instrument, with PBS-T (PBS with 0.05% Tween 20, pH 7.4) as the buffer. Biotinylated protein was captured on three sensor channels of Series S SA Sensors (Cytiva). The sensors were then blocked with 0.1 mg/mL biotin. DCPs were injected onto the sensor in a 3× concentration series. The data were double-referenced by subtracting the signal from a sensor channel coated with biotin only and the signal from a buffer injection. For data analysis, binding data were fitted using the manufacturer’s software. ,

Turning to `CC[C@H](C)[C@H](NC(=O)[C@@H]1CSSC[C@H](NC(=O)[C@H](CCC(N)=O)NC(=O)[C@@H](NC(=O)[C@H](Cc2ccc(O)cc2)NC(=O)[C@@H](NC(=O)[C@H](CC(C)C)NC(=O)CNC(=O)[C@@H]2CSSC[C@H](NC(=O)[C@H](CCC(N)=O)NC(=O)[C@@H](N)CCC(=O)O)C(=O)N[C@@H](CC(=O)O)C(=O)N[C@@H](CCC(N)=O)C(=O)N[C@@H](CC(=O)O)C(=O)N[C@@H](C)C(=O)N[C@@H](CO)C(=O)N[C@@H](C)C(=O)N2)[C@@H](C)CC)[C@@H](C)O)C(=O)N[C@H]2CSSC[C@H](NC(=O)[C@H](CC(=O)O)NC(=O)[C@H](CC(C)C)NC(=O)[C@@H]3CCCN3C(=O)[C@H](Cc3c[nH]c4ccccc34)NC2=O)C(=O)N[C@@H](CCCNC(=N)N)C(=O)N[C@@H](Cc2c[nH]c3ccccc23)C(=O)N[C@@H](C)C(=O)N[C@@H](C(C)C)C(=O)N[C@@H](CCCCN)C(=O)N[C@@H](Cc2ccc(O)cc2)C(=O)N[C@@H](CCC(N)=O)C(=O)N[C@@H](Cc2c[nH]c3ccccc23)C(=O)N[C@@H](Cc2ccccc2)C(=O)N[C@@H](Cc2c[nH]c3ccccc23)C(=O)N[C@@H](CC(=O)O)C(=O)N1)C(=O)NCC(=O)O` [GUR-1.6.12.12] (H-EQCDQDASACGLIYTQCCWPLDCRWAVKYQWFWDCIG-OH; disulfide 3-10, 17-35, 18-23), the “binding to ZNRF3” value is “lack of binding”. Consider `CC[C@H](C)[C@H](NC(=O)[C@@H]1CSSC[C@H](NC(=O)[C@@H](NC(=O)[C@H](Cc2c[nH]cn2)NC(=O)[C@H](CO)NC(=O)[C@H](Cc2ccc(O)cc2)NC(=O)[C@H](CC(=O)O)NC(=O)[C@H](Cc2c[nH]cn2)NC(=O)[C@@H]2CSSC[C@H](NC(=O)[C@H](CCC(N)=O)NC(=O)[C@H](CCC(=O)O)NC(=O)CCCC[C@@H]3SC[C@@H]4NC(=O)N[C@@H]43)C(=O)N[C@@H]([C@@H](C)O)C(=O)N[C@@H](CO)C(=O)N[C@@H]([C@@H](C)O)C(=O)N[C@@H](CCC(N)=O)C(=O)N[C@@H](CC(=O)O)C(=O)N[C@@H](CC(C)C)C(=O)N2)C(C)C)C(=O)N[C@H]2CSSC[C@H](NC(=O)[C@H](CC(=O)O)NC(=O)[C@H](CC(C)C)NC(=O)[C@@H]3CCCN3C(=O)[C@H](Cc3c[nH]c4ccccc34)NC2=O)C(=O)N[C@@H](CCCNC(=N)N)C(=O)N[C@@H](Cc2c[nH]c3ccccc23)C(=O)N[C@@H](C)C(=O)N[C@@H](C(C)C)C(=O)N[C@@H](CCCCN)C(=O)N[C@@H](Cc2ccc(O)cc2)C(=O)N[C@@H](CCC(N)=O)C(=O)N[C@@H](Cc2c[nH]c3ccccc23)C(=O)N[C@@H](Cc2ccccc2)C(=O)N[C@@H](Cc2c[nH]c3ccccc23)C(=O)N[C@@H](CC(=O)O)C(=O)N1)C(=O)NCC(=O)O` [bio-GUR-1.6.12.2] (Biotin-EQCTSTQDLCHDYSHVCCWPLDCRWAVKYQWFWDCIG-OH; disulfide 3-10, 17-35, 18-23), for which the “binding to ZNRF3, peptide immobilized” value (bio-GUR-1.6.12.2 on streptavidin sensor) is recorded as “without binding to ZNRF3”.

For `CC[C@H](C)[C@H](NC(=O)[C@@H]1CSSC[C@H](NC(=O)[C@H](CO)NC(=O)[C@H](Cc2c[nH]cn2)NC(=O)[C@@H](NC(=O)[C@@H]2CCCN2C(=O)[C@H](CCC(N)=O)NC(=O)[C@@H](NC(=O)[C@@H]2CSSC[C@H](NC(=O)[C@H](CCC(N)=O)NC(=O)[C@@H](N)CCC(=O)O)C(=O)N[C@@H](CCCNC(=N)N)C(=O)N[C@@H](CCC(=O)O)C(=O)N[C@@H](Cc3c[nH]cn3)C(=O)N[C@@H](Cc3ccccc3)C(=O)N[C@@H](Cc3c[nH]cn3)C(=O)N[C@@H](CC(=O)O)C(=O)N2)C(C)C)[C@@H](C)CC)C(=O)N[C@H]2CSSC[C@H](NC(=O)[C@H](CC(=O)O)NC(=O)[C@H](CC(C)C)NC(=O)[C@@H]3CCCN3C(=O)[C@H](Cc3c[nH]c4ccccc34)NC2=O)C(=O)N[C@@H](CCCNC(=N)N)C(=O)N[C@@H](Cc2c[nH]c3ccccc23)C(=O)N[C@@H](C)C(=O)N[C@@H](C(C)C)C(=O)N[C@@H](CCCCN)C(=O)N[C@@H](Cc2ccc(O)cc2)C(=O)N[C@@H](CCC(N)=O)C(=O)N[C@@H](Cc2c[nH]c3ccccc23)C(=O)N[C@@H](Cc2ccccc2)C(=O)N[C@@H](Cc2c[nH]c3ccccc23)C(=O)N[C@@H](CC(=O)O)C(=O)N1)C(=O)NCC(=O)O` [GUR-1.6.12.16] (H-EQCREHFHDCVQPIHSCCWPLDCRWAVKYQWFWDCIG-OH; disulfide 3-10, 17-35, 18-23), the “binding to ZNRF3” value is recorded as “lack of binding”.

Regarding `CC[C@H](C)[C@H](NC(=O)[C@@H]1CSSC[C@H](NC(=O)[C@H](CCC(N)=O)NC(=O)[C@H](CO)NC(=O)[C@H](Cc2ccc(O)cc2)NC(=O)[C@H](CCCCN)NC(=O)[C@H](Cc2ccccc2)NC(=O)[C@H](CC(N)=O)NC(=O)[C@@H]2CSSC[C@H](NC(=O)[C@H](CCC(N)=O)NC(=O)[C@@H](N)CCC(=O)O)C(=O)N[C@@H](CC(=O)O)C(=O)N[C@@H](CCC(N)=O)C(=O)N[C@@H]([C@@H](C)O)C(=O)N[C@@H](CC(N)=O)C(=O)N[C@@H](CC(C)C)C(=O)N[C@@H](Cc3ccccc3)C(=O)N2)C(=O)N[C@H]2CSSC[C@H](NC(=O)[C@H](CC(=O)O)NC(=O)[C@H](CC(C)C)NC(=O)[C@@H]3CCCN3C(=O)[C@H](Cc3c[nH]c4ccccc34)NC2=O)C(=O)N[C@@H](CCCNC(=N)N)C(=O)N[C@@H](Cc2c[nH]c3ccccc23)C(=O)N[C@@H](C)C(=O)N[C@@H](C(C)C)C(=O)N[C@@H](CCCCN)C(=O)N[C@@H](Cc2ccc(O)cc2)C(=O)N[C@@H](CCC(N)=O)C(=O)N[C@@H](Cc2c[nH]c3ccccc23)C(=O)N[C@@H](Cc2ccccc2)C(=O)N[C@@H](Cc2c[nH]c3ccccc23)C(=O)N[C@@H](CC(=O)O)C(=O)N1)C(=O)NCC(=O)O` [GUR-1.6.12.4] (H-EQCDQTNLFCNFKYSQCCWPLDCRWAVKYQWFWDCIG-OH; disulfide 3-10, 17-35, 18-23), the “binding to ZNRF3” value is recorded as “lack of binding”.
